Test results: ChEMBL document CHEMBL5108035, “Acriflavine, an Acridine Derivative for Biomedical Application: Current State of the Art” (J Med Chem, 2022)

What was measured:
[1] = Anticancer activity against patient-derived human Colorectal tumor cells assessed as tumor growth inhibition incubated for 72 hrs by FMCA assay; type: functional, cell-based; details: Colorectal cancer cell
[2] = tested on: Ovarian cancer cell line; experiment: Anticancer activity against patient-derived human Ovarian tumor cells assessed as tumor growth inhibition incubated for 72 hrs by FMCA assay; type: functional, cell-based
[3] = Anticancer activity against patient-derived human CLL tumor cells assessed as tumor growth inhibition incubated for 72 hrs by FMCA assay; type: functional, cell-based; details: CLL cell
[4] = Cytotoxicity against patient-derived human mononuclear cells assessed as cell growth inhibition incubated for 72 hrs by FMCA assay; type: toxicity, cell-based, Mononuclear cell line
[5] = tested on: Mahlavu; experiment: Cytotoxicity against human Mahlavu cells assessed as inhibition of cell viability incubated upto 72 hrs by MTT assay; type: functional, cell-based

**Q.** Which results are given for `O=c1[nH]cc(F)c(=O)[nH]1` [FLUOROURACIL]?
**A.** IC50 [1]: 755 µM; IC50 [2]: 563 µM; IC50 [3]: 658 µM; IC50 at 72 h [4]: 430 µM

**Q.** With `CCc1c2c(nc3ccc(OC(=O)N4CCC(N5CCCCC5)CC4)cc13)-c1cc3c(c(=O)n1C2)COC(=O)[C@]3(O)CC` [IRINOTECAN] as the molecule, how does the IC50 [1] read?
**A.** 89.6 µM

**Q.** What about the IC50 [2] of the same molecule?
**A.** 75.3 µM

**Q.** Which IC50 [5] does the source give for `CNC(=O)c1cc(Oc2ccc(NC(=O)Nc3ccc(Cl)c(C(F)(F)F)c3)cc2)ccn1` [SORAFENIB] here?
**A.** 13.4 µM
